One assay concerns Cryptococcus neoformans. Kind of assay: Antifungal activity against Cryptococcus neoformans. The format is functional.
For a further assay, the system named is Candida albicans. Description: Antifungal activity against Candida albicans. The format is functional.

≈ marks a conversion by molar mass, not a printed value.

Usually MIC stands for the lowest concentration that inhibits growth of the organism. The low end stands for greater potency, the high end for weaker potency. As to `COC1=C(Br)[C@H](O)[C@@]2(C=C1Br)CC(C(=O)NCCc1[nH]c(=N)[nH]c1-c1cc(O)c3[nH]cc(O)c(=O)c3c1O)=NO2` [CERATINADIN B], the MIC in the assay with Cryptococcus neoformans came out at 8 µg/mL (≈ 11.7 µM); against Candida albicans it was 4 µg/mL (≈ 5.86 µM).

As to `COC1=C(Br)[C@H](O)[C@@]2(C=C1Br)CC(C(=O)NCCc1cn(-c3cc(O)c4[nH]cc(O)c(=O)c4c3O)cn1)=NO2` [CERATINADIN A], the MIC came out at 4 µg/mL (≈ 5.99 µM) in the assay with Cryptococcus neoformans and 2 µg/mL (≈ 3 µM) in the assay on Candida albicans.

With `N=c1[nH]cc(CCNC(=O)C2=NO[C@]3(C=C(Br)C(=O)[C@@H](Br)[C@@H]3O)C2)[nH]1` [CERATINADIN C], the MIC against Cryptococcus neoformans and against Candida albicans was greater than 32 µg/mL each time.

The record behind these values is ChEMBL document CHEMBL1208716, “Ceratinadins A-C, new bromotyrosine alkaloids from an Okinawan marine sponge Pseudoceratina sp” (2010).
